Experimental data taken from patent US20070054834A1, “Quaternary ammonium halides for treatment of infectious conditions” (NanoBio Corporation, priority 2005, published 2007).

System: S. aureus ATCC 6538
Test: Microbicidal effect of CPC on S. aureus cultures (log reduction in count)
Format: cell-based, Staphylococcus aureus
Details: incubated 10 minutes at 37° C
Protocol: The microbicidal effect of cetyl pyridinium chloride (CPC) was tested using a strain of Staphylococcus aureus. Specifically, S. aureus ATCC 6538 cultures were placed in three different test tubes. Different concentrations (0.1%, 0.01% or 0.001%) of CPC were added to each of the test tubes. The mixture of CPC and S. aureus was incubated for 10 minutes on a tube rotator at 37° C. The results are shown below in Table 1 as the log reduction in S. aureus count.

CCCCCCCCCCCCCCCC[n+]1ccccc1 [CPC, cetyl pyridinium chloride] was tested, and the “Log reduction in S. aureus count” value (CPC concentration 0.001%) was 3.4, the “Log reduction in S. aureus count” value (CPC concentration 0.01%) was 5.3 and the “Log reduction in S. aureus count” value (CPC concentration 0.1%) was 5.3.
